The text below walks through data of patent publication US20240376056A1, “PHENYL ACETAMIDE BASED IL-17A MODULATORS AND USES THEREOF” (DiCE Alpha, Inc., priority 2021, published 2024).

Each structure is given as a SMILES string.

This experiment has as its target T1, IL-17A/A (Homo sapiens, UniProt Q16552).
T1 construct: purchased Genscript Z03228
T1 sequence (Q16552 24-155): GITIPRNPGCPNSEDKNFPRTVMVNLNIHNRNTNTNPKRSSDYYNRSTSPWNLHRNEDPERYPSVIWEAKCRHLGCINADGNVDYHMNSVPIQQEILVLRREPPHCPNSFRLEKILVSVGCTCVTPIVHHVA
Description: HEK-Blue IL-17A/A inhibition assay (SEAP reporter). The class given is cell-based. As to conditions: HEK-Blue cells (HEK 293 expressing IL-17RA, IL-17RC, Act1); IL-17A/A stimulation; 20 hours; SEAP read at A630; 4-parameter fit. The essentials:
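HEK 293 cells engineered with IL-17RA, IL-17RC and Act1 (NFκB-driven SEAP) given titrated compound (top final 10, 1 or 0.3 uM; 0.1% DMSO) just before IL-17A/A, then incubated 20 h. SEAP in media developed with Quanti-Blue, read at A630; IC50 by 4-parameter nonlinear fit.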
`CC(C)n1nccc1C(=O)N[C@H](C(=O)Nc1ccc([C@H](C)C(=O)N2CC[C@H]2C(F)(F)F)cc1F)C(C1CC1)C1CC1` [Compound 64, N-((S)-1,1-dicyclopropyl-3-((2-fluoro-4-((S)-1-oxo-1-((S)-2-(trifluoromethyl)azetidin-1-yl)propan-2-yl)phenyl)amino)-3-oxopropan-2-yl)-1-isopropyl-1H-pyrazole-5-carboxamide]: the concentration for half-maximal inhibition (IC50) (as a rule, the concentration needed to halve the response being measured) was 100 to 1000 nM. For `CC(C)n1nccc1C(=O)N[C@H](C(=O)Nc1ccc([C@H](C)C(=O)NCC(F)(F)CO)cc1F)C(C1CC1)C1CC1` [Compound 65, N-((S)-1,1-dicyclopropyl-3-((4-((S)-1-((2,2-difluoro-3-hydroxypropyl)amino)-1-oxopropan-2-yl)-2-fluorophenyl)amino)-3-oxopropan-2-yl)-1-isopropyl-1H-pyrazole-5-carboxamide] the value was over 1000 nM; for `CC(C)n1nccc1C(=O)N[C@H](C(=O)Nc1ccc([C@H](C)C(=O)NC(c2ccccc2)C(F)(F)F)cc1F)C(C1CC1)C1CC1` (stereo partly drawn) [Compound 66, N-((2S)-1,1-dicyclopropyl-3-((2-fluoro-4-((2S)-1-oxo-1-((2,2,2-trifluoro-1-phenylethyl)amino)propan-2-yl)phenyl)amino)-3-oxopropan-2-yl)-1-isopropyl-1H-pyrazole-5-carboxamide], 100 to 1000 nM; for `CC(C)n1nccc1C(=O)N[C@H](C(=O)Nc1ccc([C@H](C)C(=O)NC(C2CCOC2)C(F)(F)F)cc1F)C(C1CC1)C1CC1` (stereo partly drawn) [Compound 67, N-[(1S)-1-(dicyclopropylmethyl)-2-[2-fluoro-4-[(1S)-1-methyl-2-oxo-2-[(2,2,2-trifluoro-1-tetrahydrofuran-3-yl-ethyl)amino]ethyl]anilino]-2-oxo-ethyl]-2-isopropyl-pyrazole-3-carboxamide], under 100 nM.

Regarding `CCn1nccc1C(=O)N[C@H](C(=O)Nc1ccc([C@H](C)C(=O)N(C)CC(F)(F)F)cc1F)C(C1CC1)C1CC1` [Compound 68, N-((S)-1,1-dicyclopropyl-3-((2-fluoro-4-((S)-1-(methyl(2,2,2-trifluoroethyl)amino)-1-oxopropan-2-yl)phenyl)amino)-3-oxopropan-2-yl)-1-ethyl-1H-pyrazole-5-carboxamide], the IC50 was under 100 nM.

For `CCn1nccc1C(=O)N[C@H](C(=O)Nc1ccc([C@H](C)C(=O)N(C)CC(F)(F)F)cc1F)[C@H]1CC[C@H](C)CC1` [Compound 71, -ethyl-N-((S)-2-((2-fluoro-4-((S)-1-(methyl(2,2,2-trifluoroethyl)amino)-1-oxopropan-2-yl)phenyl)amino)-1-((1r,4S)-4-methylcyclohexyl)-2-oxoethyl)-1H-pyrazole-5-carboxamide], the IC50 is under 100 nM. The result for `CC[C@@H](c1ccc(Cl)cc1)[C@H](NC(=O)c1ccnn1CC)C(=O)Nc1ccc([C@H](C)C(=O)N(C)CC(F)(F)F)cc1F` [Compound 72, N-((2S,3S)-3-(4-chlorophenyl)-1-((2-fluoro-4-((S)-1-(methyl(2,2,2-trifluoroethyl)amino)-1-oxopropan-2-yl)phenyl)amino)-1-oxopentan-2-yl)-1-ethyl-1H-pyrazole-5-carboxamide] reads 100 to 1000 nM. The result for `CCn1nccc1C(=O)N[C@H](C(=O)Nc1ccc([C@H](C)C(=O)N(C)CC(F)(F)F)cc1F)[C@H](c1ccccc1Cl)C(C)C` [Compound 73, N-((2S,3S)-3-(2-chlorophenyl)-1-((2-fluoro-4-((S)-1-(methyl(2,2,2-trifluoroethyl)amino)-1-oxopropan-2-yl)phenyl)amino)-4-methyl-1-oxopentan-2-yl)-1-ethyl-1H-pyrazole-5-carboxamide] reads over 1000 nM; that for `CCn1nccc1C(=O)N[C@H](C(=O)Nc1ccc([C@H](C)C(=O)N(C)CC(F)(F)F)cc1F)C1CCC(F)(F)CC1` [Compound 74, N-((S)-1-(4,4-difluorocyclohexyl)-2-((2-fluoro-4-((S)-1-(methyl(2,2,2-trifluoroethyl)amino)-1-oxopropan-2-yl)phenyl)amino)-2-oxoethyl)-1-ethyl-1H-pyrazole-5-carboxamide], 100 to 1000 nM. The result for `CCn1nccc1C(=O)N[C@H](C(=O)Nc1ccc([C@H](C)C(=O)N(C)CC(F)(F)F)cc1F)C1CCC2(CC1)CC2` [Compound 75, 1-ethyl-N-((S)-2-((2-fluoro-4-((S)-1-(methyl(2,2,2-trifluoroethyl)amino)-1-oxopropan-2-yl)phenyl)amino)-2-oxo-1-(spiro[2.5]octan-6-yl)ethyl)-1H-pyrazole-5-carboxamide] reads 100 to 1000 nM; that for `CC(C)n1nccc1C(=O)N[C@H](C(=O)Nc1ccc([C@H](C)C(=O)N(C)CC(F)(F)F)cc1F)C(C1CC1)C1CC1` [Compound 78, N-((S)-1,1-dicyclopropyl-3-((2-fluoro-4-((S)-1-(methyl(2,2,2-trifluoroethyl)amino)-1-oxopropan-2-yl)phenyl)amino)-3-oxopropan-2-yl)-1-isopropyl-1H-pyrazole-5-carboxamide], under 100 nM; that for `CCn1ncc(F)c1C(=O)N[C@H](C(=O)Nc1ccc([C@H](C)C(=O)N(C)CC(F)(F)F)cc1F)C(C1CC1)C1CC1` [Compound 79, N-((S)-1,1-dicyclopropyl-3-((2-fluoro-4-((S)-1-(methyl(2,2,2-trifluoroethyl)amino)-1-oxopropan-2-yl)phenyl)amino)-3-oxopropan-2-yl)-1-ethyl-4-fluoro-1H-pyrazole-5-carboxamide], 100 to 1000 nM.

Turning to `CCc1nocc1C(=O)N[C@H](C(=O)Nc1ccc([C@H](C)C(=O)N(C)CC(F)(F)F)cc1F)C(C1CC1)C1CC1` [Compound 80, N-((S)-1,1-dicyclopropyl-3-((2-fluoro-4-((S)-1-(methyl(2,2,2-trifluoroethyl)amino)-1-oxopropan-2-yl)phenyl)amino)-3-oxopropan-2-yl)-3-ethylisoxazole-4-carboxamide], the IC50 is under 100 nM.

With `CC(C)n1nccc1C(=O)N[C@H](C(=O)Nc1ccc([C@H](C)C(=O)NCC(F)(F)F)cc1F)C(C1CC1)C1CC1` [Compound 82, N-((S)-1,1-dicyclopropyl-3-((2-fluoro-4-((S)-1-oxo-1-((2,2,2-trifluoroethyl)amino)propan-2-yl)phenyl)amino)-3-oxopropan-2-yl)-1-isopropyl-1H-pyrazole-5-carboxamide], the IC50 was under 100 nM. The result for `CCn1ncc(F)c1C(=O)N[C@H](C(=O)Nc1ccc([C@H](C)C(=O)NCC(F)(F)F)cc1F)C(C1CC1)C1CC1` [Compound 83, N-((S)-1,1-dicyclopropyl-3-((2-fluoro-4-((S)-1-oxo-1-((2,2,2-trifluoroethyl)amino)propan-2-yl)phenyl)amino)-3-oxopropan-2-yl)-1-ethyl-4-fluoro-1H-pyrazole-5-carboxamide] reads over 1000 nM.

As for `CCc1nocc1C(=O)N[C@H](C(=O)Nc1ccc([C@H](C)C(=O)NCC(F)(F)F)cc1F)C(C1CC1)C1CC1` [Compound 84, N-((S)-1,1-dicyclopropyl-3-((2-fluoro-4-((S)-1-oxo-1-((2,2,2-trifluoroethyl)amino)propan-2-yl)phenyl)amino)-3-oxopropan-2-yl)-3-ethylisoxazole-4-carboxamide], the IC50 was under 100 nM. For `CC[C@@H](c1ccc(F)cc1)[C@H](NC(=O)c1ccnn1CC)C(=O)Nc1ccc([C@H](C)C(=O)N(C)CC(F)(F)F)cc1F` [Compound 85, -ethyl-N-((2S,3S)-1-((2-fluoro-4-((S)-1-(methyl(2,2,2-trifluoroethyl)amino)-1-oxopropan-2-yl)phenyl)amino)-3-(4-fluorophenyl)-1-oxopentan-2-yl)-1H-pyrazole-5-carboxamide] the value was 100 to 1000 nM; for `CCn1nccc1C(=O)N[C@H](C(=O)Nc1ccc([C@H](C)C(=O)NCC(F)(F)F)cc1F)C(C1CCC1)C1CCC1` [Compound 88, N-((S)-1,1-dicyclobutyl-3-((2-fluoro-4-((S)-1-oxo-1-((2,2,2-trifluoroethyl)amino)propan-2-yl)phenyl)amino)-3-oxopropan-2-yl)-1-ethyl-1H-pyrazole-5-carboxamide], 100 to 1000 nM.

Turning to `C[C@H](C(=O)NCC(F)(F)F)c1ccc(NC(=O)[C@@H](NC(=O)c2ccnn2CCN2CCOCC2)C(C2CC2)C2CC2)c(F)c1` [Compound 89, N-((S)-1,1-dicyclopropyl-3-((2-fluoro-4-((S)-1-oxo-1-((2,2,2-trifluoroethyl)amino)propan-2-yl)phenyl)amino)-3-oxopropan-2-yl)-1-(2-morpholinoethyl)-1H-pyrazole-5-carboxamide], the IC50 was 100 to 1000 nM. As for `CCn1nccc1C(=O)N[C@H](C(=O)Nc1ccc([C@H](C)C(=O)N(C)CC(F)(F)F)cc1F)[C@H]1CCc2ccccc21` [Compound 90, N-((S)-1-((S)-2,3-dihydro-1H-inden-1-yl)-2-((2-fluoro-4-((S)-1-(methyl(2,2,2-trifluoroethyl)amino)-1-oxopropan-2-yl)phenyl)amino)-2-oxoethyl)-1-ethyl-1H-pyrazole-5-carboxamide], the IC50 was in the range of 100 to 1000 nM. For `CCn1nccc1C(=O)N[C@H](C(=O)Nc1ccc([C@H](C)C(=O)N(C)CC(F)(F)F)cc1F)[C@@H]1CCc2ccccc21` [Compound 91, N-((S)-1-((R)-2,3-dihydro-1H-inden-1-yl)-2-((2-fluoro-4-((S)-1-(methyl(2,2,2-trifluoroethyl)amino)-1-oxopropan-2-yl)phenyl)amino)-2-oxoethyl)-1-ethyl-1H-pyrazole-5-carboxamide] the value was over 1000 nM; for `C[C@H](C(=O)NCC(F)(F)F)c1ccc(NC(=O)[C@@H](NC(=O)c2ccnn2CCN2CC(F)(F)C2)C(C2CC2)C2CC2)c(F)c1` [Compound 94, N-((S)-1.1-dicyclopropyl-3-((2-fluoro-4-((S)-1-oxo-1-((2,2,2-trifluoroethyl)amino)propan-2-yl)phenyl)amino)-3-oxopropan-2-yl)-1-(2-(3,3-difluoroazetidin-1-yl)ethyl)-1H-pyrazole-5-carboxamide], 100 to 1000 nM.
